From the supplement of paper PMC4862054
Blank lines part the entries; values can stand above or below the molecule they belong to.

Tests used:
Settings in all cases: 72 h
[1] = system: MFM-223
Method in brief: (§1)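 Compound dissolved in 5 µl medium was placed in 384-well plates before 20 µl of breast cancer cell suspension was added, and the plates were incubated for 72 h. Cells then received 2.5 µl CellTiter-Blue for 2 h at 37 °C, and fluorescence was read at 560/590 nm. EC50 values come from percent-inhibition dose-response fits that were censored at the highest concentration, with plates normalised to vehicle and a positive kill control and rows with a zero drug sensitivity score excluded.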

[2] = system: SK-BR-3
Method in brief: as §1

[3] = system: BT-549
Method in brief: as §1

[4] = system: Hs578T
Method in brief: as §1

[5] = system: MDA-MB-468
Method in brief: as §1

[6] = system: MDA-MB-436
Method in brief: as §1

[7] = system: HCC1599
Method in brief: as §1

[8] = system: HCC1143
Method in brief: as §1

[9] = system: BT-474
Method in brief: as §1

[10] = system: CAL-148
Method in brief: (§2)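 In this assay, breast cancer cell lines spent 72 h with compound at 5 concentrations in 10-fold steps over a compound-specific 10,000-fold range. The first readout was cell death by CellTox Green fluorescence, and the second was viability by CellTiter-Glo luminescence, each normalised per plate to 0.1 % DMSO and a positive kill control. EC50 came from the dose-response curves, censored at the top concentration.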

[11] = system: MFM-223; remark: listed apart in the source
Method in brief: as §2

[12] = system: SK-BR-3; remark: listed apart in the source
Method in brief: as §2

[13] = system: BT-549; remark: listed apart in the source
Method in brief: as §2

[14] = system: MDA-MB-231
Method in brief: as §2

[15] = system: Hs578T; remark: listed apart in the source
Method in brief: as §2

[16] = system: CAL-51
Method in brief: as §2

[17] = system: MDA-MB-468; remark: listed apart in the source
Method in brief: as §2

[18] = system: HCC1937
Method in brief: as §2

[19] = system: DU-4475
Method in brief: as §2

[20] = system: CAL-120
Method in brief: as §2

[21] = system: CAL-85-1
Method in brief: as §2

[22] = system: MDA-MB-436; remark: listed apart in the source
Method in brief: as §2

[23] = system: MDA-MB-453
Method in brief: as §2

[24] = system: HCC1599; remark: listed apart in the source
Method in brief: as §2

[25] = system: MCF-10A
Method in brief: as §2

[26] = system: HCC1143; remark: listed apart in the source
Method in brief: as §2

[27] = system: HDQ-P1
Method in brief: as §2

[28] = system: BT-474; remark: listed apart in the source
Method in brief: as §2

[29] = system: CAL-51; remark: listed apart in the source
Method in brief: as §1

[30] = system: DU-4475; remark: listed apart in the source
Method in brief: as §1

[31] = system: CAL-85-1; remark: listed apart in the source
Method in brief: as §1

[32] = system: HDQ-P1; remark: listed apart in the source
Method in brief: as §1

[33] = system: CAL-148; remark: listed apart in the source
Method: (§3)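 Drug sensitivity and resistance testing (DSRT) of breast cancer cell lines in 384-well plates, 5 concentrations in 10-fold dilutions over a compound-specific 10,000-fold range. After 72 h, cytotoxicity was read by CellTox Green fluorescence and viability by CellTiter-Glo luminescence (multiplexed), normalised to DMSO and benzethonium chloride controls. EC50 is the inflection point of the fitted dose-response curve (bottom asymptote free, so it can be relative for partial curves) and is censored at the highest tested concentration. Rows with DSS 0 (no meaningful response) were excluded.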

[34] = system: MDA-MB-231; remark: listed apart in the source
Method: as §3

[35] = system: Hs578T; remark: listed apart in the source
Method: as §3

[36] = system: CAL-51; remark: listed apart in the source
Method: as §3

[37] = system: MDA-MB-468; remark: listed apart in the source
Method: as §3

[38] = system: HCC1937; remark: listed apart in the source
Method: as §3

[39] = system: DU-4475; remark: listed apart in the source
Method: as §3

[40] = system: CAL-120; remark: listed apart in the source
Method: as §3

[41] = system: CAL-85-1; remark: listed apart in the source
Method: as §3

[42] = system: MCF-10A; remark: listed apart in the source
Method: as §3

[43] = system: HCC1143; remark: listed apart in the source
Method: as §3

[44] = system: HDQ-P1; remark: listed apart in the source
Method: as §3

[45] = system: BT-474; remark: listed apart in the source
Method: as §3

SMILES: C[C@@H](Oc1cc(-c2cnn(C3CCNCC3)c2)cnc1N)c1c(Cl)ccc(F)c1Cl [Crizotinib]
EC50, CellTiter-Blue viability [1]: 3720 nM
EC50, CellTiter-Blue viability [2]: 4160 nM
EC50, CellTiter-Blue viability [3]: 7180 nM
EC50, CellTiter-Blue viability [4]: 7690 nM
EC50, CellTiter-Blue viability [5]: 3640 nM
EC50, CellTiter-Blue viability [6]: 275 nM
EC50, CellTiter-Blue viability [8]: 8170 nM
EC50, CellTiter-Blue viability [9]: 3540 nM
EC50, CellTiter-Glo [17]: > 1000 nM
EC50, CellTiter-Blue viability [29]: 3140 nM
EC50, CellTiter-Blue viability [30]: 4940 nM
EC50, CellTiter-Blue viability [31]: 6530 nM
EC50, CellTiter-Blue viability [32]: 6970 nM
EC50, CellTox Green [44]: > 1000 nM

SMILES: O=C(O)c1ccc(-c2c[nH]c3ncc(-c4ccccc4)cc23)cc1C1CCCC1
EC50, CellTiter-Glo [12]: > 10000 nM
EC50, CellTiter-Glo [15]: > 10000 nM

SMILES: Oc1nc(-c2ccc(C(F)(F)F)cc2)nc2c1CSCC2 [XAV-939]
EC50, CellTiter-Blue viability [8]: > 10000 nM
EC50, CellTiter-Glo [14]: 172 nM
EC50, CellTiter-Glo [16]: 12.6 nM
EC50, CellTiter-Glo [28]: 350 nM
EC50, CellTiter-Blue viability [32]: 2090 nM

Now from value to molecule, other results behind:

EC50, CellTiter-Blue viability [2]: 8.15 nM
EC50, CellTiter-Blue viability [3]: 6.08 nM
EC50, CellTiter-Blue viability [5]: 60.5 nM
EC50, CellTiter-Blue viability [6]: 19.9 nM
EC50, CellTiter-Blue viability [7]: 17.4 nM
EC50, CellTiter-Blue viability [8]: 26.2 nM
EC50, CellTiter-Blue viability [9]: 22.9 nM
EC50, CellTiter-Glo [12]: 11 nM
EC50, CellTiter-Glo [13]: 8.13 nM
EC50, CellTiter-Glo [14]: 46.2 nM
EC50, CellTiter-Glo [17]: 32 nM
EC50, CellTiter-Glo [18]: 44.1 nM
EC50, CellTiter-Glo [22]: 11.3 nM
EC50, CellTiter-Glo [23]: 19.8 nM
EC50, CellTiter-Glo [24]: 91.5 nM
EC50, CellTiter-Glo [26]: 34.8 nM
EC50, CellTiter-Glo [28]: 48.8 nM
SMILES: CO[C@H]1/C=C\C=C(/C)C(=O)NC2=CC(=O)C(NCCN(C)C)=C(C[C@@H](C)C[C@H](OC)[C@H](O)[C@@H](C)/C=C(\C)[C@@H]1OC(N)=O)C2=O [Alvespimycin]
EC50, CellTiter-Blue viability [1]: 8.78 nM
EC50, CellTiter-Blue viability [4]: 5.38 nM
EC50, CellTiter-Glo [10]: 38.7 nM
EC50, CellTiter-Glo [11]: 17.6 nM
EC50, CellTiter-Glo [15]: 45.7 nM
EC50, CellTiter-Glo [16]: 48 nM
EC50, CellTiter-Glo [19]: 34 nM
EC50, CellTiter-Glo [20]: 46.2 nM
EC50, CellTiter-Glo [21]: 41.8 nM
EC50, CellTiter-Glo [25]: 40.8 nM
EC50, CellTiter-Glo [27]: 30.2 nM
EC50, CellTiter-Blue viability [29]: 53.3 nM
EC50, CellTiter-Blue viability [30]: 15.3 nM
EC50, CellTiter-Blue viability [31]: 35.1 nM
EC50, CellTiter-Blue viability [32]: 22.6 nM
EC50, CellTox Green [33]: 45 nM
EC50, CellTox Green [34]: 171 nM
EC50, CellTox Green [35]: 242 nM
EC50, CellTox Green [36]: 35.8 nM
EC50, CellTox Green [37]: 682 nM
EC50, CellTox Green [38]: 781 nM
EC50, CellTox Green [39]: 26.6 nM
EC50, CellTox Green [40]: > 1000 nM
EC50, CellTox Green [41]: 187 nM
EC50, CellTox Green [42]: 37.9 nM
EC50, CellTox Green [43]: 138 nM
EC50, CellTox Green [44]: 12.2 nM
EC50, CellTox Green [45]: 77.3 nM

EC50, CellTiter-Glo [13]: > 10000 nM
EC50, CellTiter-Glo [17]: 1710 nM
SMILES: CNCc1ccc(-c2[nH]c3cc(F)cc4c3c2CCNC4=O)cc1 [Rucaparib]
EC50, CellTiter-Blue viability [1]: 5060 nM
EC50, CellTiter-Glo [10]: 501 nM
EC50, CellTiter-Blue viability [29]: 8870 nM
EC50, CellTox Green [37]: 2.01 nM
